From patent US20120202793A1, “RHO KINASE INHIBITORS” (priority 2009, published 2012)
pIC50: −log10 of the molar value. Values belong to the compound of their own block, whether it stands above or below them.

Columns and labels:
ROCK 2 = ROCK 2 (Homo sapiens, UniProt O75116); test: Inhibition of Rho kinase ROCK 2 (Tables 2.1-2.4); assay type: biochemical
Description: (§1) Inhibitory activity for Rho kinase was determined for examples of compounds of the present invention. Inhibition of Rho kinase can be assayed as described. For each of these compounds their inhibitory activity for both ROCK1 and ROCK2 was determined.
(§2) The IC50 values (in μM) for each of these compounds show a selectivity for inhibiting ROCK2.

ROCK 1 = ROCK 1 (Homo sapiens, UniProt Q13464); test: Inhibition of Rho kinase ROCK 1 (Tables 2.1-2.4); assay type: biochemical
ROCK 1, sequence (Q13464 whole entry, species assumed): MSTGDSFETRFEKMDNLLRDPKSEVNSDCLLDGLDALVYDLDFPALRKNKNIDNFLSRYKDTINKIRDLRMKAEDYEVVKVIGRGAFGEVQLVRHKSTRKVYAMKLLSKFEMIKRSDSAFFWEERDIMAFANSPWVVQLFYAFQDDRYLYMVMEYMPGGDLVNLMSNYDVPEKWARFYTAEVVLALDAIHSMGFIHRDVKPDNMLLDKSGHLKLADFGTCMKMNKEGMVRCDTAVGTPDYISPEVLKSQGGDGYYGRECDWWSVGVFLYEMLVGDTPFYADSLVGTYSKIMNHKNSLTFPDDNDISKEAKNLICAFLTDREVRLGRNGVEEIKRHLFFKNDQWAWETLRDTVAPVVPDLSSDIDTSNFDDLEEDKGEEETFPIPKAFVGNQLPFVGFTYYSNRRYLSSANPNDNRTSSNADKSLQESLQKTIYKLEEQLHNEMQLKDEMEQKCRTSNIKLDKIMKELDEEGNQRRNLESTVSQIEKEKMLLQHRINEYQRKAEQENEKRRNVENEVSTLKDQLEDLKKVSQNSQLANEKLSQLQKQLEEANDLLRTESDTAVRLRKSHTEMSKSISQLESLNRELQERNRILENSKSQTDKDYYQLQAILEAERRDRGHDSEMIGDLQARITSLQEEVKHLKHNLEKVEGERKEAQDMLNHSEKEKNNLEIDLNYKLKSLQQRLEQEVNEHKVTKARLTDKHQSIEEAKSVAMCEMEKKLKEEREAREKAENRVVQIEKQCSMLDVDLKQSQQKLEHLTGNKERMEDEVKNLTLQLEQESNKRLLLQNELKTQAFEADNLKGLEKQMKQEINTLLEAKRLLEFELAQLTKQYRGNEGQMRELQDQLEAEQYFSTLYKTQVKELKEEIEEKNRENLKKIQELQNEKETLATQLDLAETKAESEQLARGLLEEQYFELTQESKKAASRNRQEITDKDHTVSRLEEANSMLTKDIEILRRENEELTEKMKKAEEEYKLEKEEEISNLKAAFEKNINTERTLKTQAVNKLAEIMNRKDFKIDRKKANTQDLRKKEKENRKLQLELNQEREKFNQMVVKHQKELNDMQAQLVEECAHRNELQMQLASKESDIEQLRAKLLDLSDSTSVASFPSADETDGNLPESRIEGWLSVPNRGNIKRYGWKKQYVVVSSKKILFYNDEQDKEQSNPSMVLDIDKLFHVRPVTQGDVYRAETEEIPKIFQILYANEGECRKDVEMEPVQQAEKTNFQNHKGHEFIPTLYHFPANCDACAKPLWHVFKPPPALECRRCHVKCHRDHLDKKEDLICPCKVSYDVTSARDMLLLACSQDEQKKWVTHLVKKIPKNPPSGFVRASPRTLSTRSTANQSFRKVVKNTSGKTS
Description: as §1, §2

[1] = Attenuation of weight gain in ApoE (−/−) and C57BL/6 mice on high fat diet; assay type: in vivo; conditions: 0.1% in the diet from the fourth week, FIG. 15
From the text: (§3) In a different experiment, ApoE (−/−) deficient mice were compared with C57BL/6 mice. All mice were initially fed a control diet for one week, and a high fat diet for the following 11 weeks. At the start of the fourth week, half of the C57BL/6 mice and half of the ApoE (−/−) mice were supplemented with 0.1% SLx-2119 in the diet.

[2] = Body weight of rats fed a low fat diet; assay type: in vivo
From the text: The effect of SLx-2119 supplementation on body weight of rats fed a low fat diet was also investigated.

[3] = Attenuation of weight gain, C57BL/6 mice consuming a high fat diet; assay type: in vivo
Description: The ability of SLx-2119 to limit weight gain was evaluated by administration to C57BL/6, ApoE knockout, and leptin deficient mice as part of a high fat or low fat diet.
Three groups of 10 mice each were initially fed a control diet for a week. Two groups were then switched to a high fat diet in which 42% of the calories were from fat. SLx-2119 was included in the diet of one of the two groups. The third group continued on the control diet. Fasting glucose levels were measured during the first week (all groups consuming the control diet), and again during the third and sixth week.

[4] = Glucose tolerance in C57BL/6 mice after 54 days on diet; assay type: in vivo; conditions: high fat diet with compound, meal after overnight fast, FIG. 14
From the text: Separate groups of C57BL/6 mice were fed as above, and evaluated for glucose tolerance after 54 days. All mice were fed the same meal |what is the meal| after an overnight fast. […] (FIG. 14)

[5] = Attenuation of hyperinsulinemia in Leptin deficient (ob−/ob−) mice; assay type: in vivo
From the text: Leptin deficient (ob^−/ob^−) mice were maintained on a normal (control), or a high fat diet with or without SLx-2119. […] Attenuation of hyperinsulinemia was similarly observed in ob^−/ob^− mice maintained on a low fat diet (FIG. 26).

[6] = Attenuation of weight gain in Leptin deficient (ob−/ob−) mice, low fat or high fat diet; assay type: in vivo
Description: The effect of SLx-2119 on weight gain in Leptin deficient (ob^−/ob^−) mice fed a low fat (normal) or high fat diet was also measured. […] The leptin deficient mice gained considerably more weight than normal 057BL/6 mice fed the low fat diet.
The leptin deficient mice consuming the high fat diet gained weigh at about four times the rate of normal mice on a low fat diet. […] As with the low fat diet, caloric intake was quite a bit higher in the ob^−/ob^− mice, whether or not they received SLx-2119. (FIG. 23).

[7] = Fasting insulin and glucose levels in ApoE (−/−) and C57BL/6 mice on high fat diet; assay type: in vivo
From the text: as §3
The reductions in fasting insulin levels were accompanied by reductions in fasting blood glucose levels. (FIG. 18, bottom).

ROCK2 = test: Inhibition of phosphorylation of S6 Long Peptide by ROCK1 and ROCK2 (33P filter assay), selective inhibition of ROCK2; assay type: biochemical
Description: Filtration was done in 96 well filter plates containing phosphocellulose cation exchange paper (Millipore, Cat#MAPHNOBIO).
The reaction was incubated for 40 minutes at room temperature and stopped with 25 ul 3% phosphoric acid. Reaction was then transferred to a filter plate wet with 75 mM phosphoric acid. The plate was then washed three times with 75 mM phosphoric acid and once with methanol. […] IC50 values were determined using Graphpad Prism.

ROCK 2, sequence (O75116 whole entry, species assumed): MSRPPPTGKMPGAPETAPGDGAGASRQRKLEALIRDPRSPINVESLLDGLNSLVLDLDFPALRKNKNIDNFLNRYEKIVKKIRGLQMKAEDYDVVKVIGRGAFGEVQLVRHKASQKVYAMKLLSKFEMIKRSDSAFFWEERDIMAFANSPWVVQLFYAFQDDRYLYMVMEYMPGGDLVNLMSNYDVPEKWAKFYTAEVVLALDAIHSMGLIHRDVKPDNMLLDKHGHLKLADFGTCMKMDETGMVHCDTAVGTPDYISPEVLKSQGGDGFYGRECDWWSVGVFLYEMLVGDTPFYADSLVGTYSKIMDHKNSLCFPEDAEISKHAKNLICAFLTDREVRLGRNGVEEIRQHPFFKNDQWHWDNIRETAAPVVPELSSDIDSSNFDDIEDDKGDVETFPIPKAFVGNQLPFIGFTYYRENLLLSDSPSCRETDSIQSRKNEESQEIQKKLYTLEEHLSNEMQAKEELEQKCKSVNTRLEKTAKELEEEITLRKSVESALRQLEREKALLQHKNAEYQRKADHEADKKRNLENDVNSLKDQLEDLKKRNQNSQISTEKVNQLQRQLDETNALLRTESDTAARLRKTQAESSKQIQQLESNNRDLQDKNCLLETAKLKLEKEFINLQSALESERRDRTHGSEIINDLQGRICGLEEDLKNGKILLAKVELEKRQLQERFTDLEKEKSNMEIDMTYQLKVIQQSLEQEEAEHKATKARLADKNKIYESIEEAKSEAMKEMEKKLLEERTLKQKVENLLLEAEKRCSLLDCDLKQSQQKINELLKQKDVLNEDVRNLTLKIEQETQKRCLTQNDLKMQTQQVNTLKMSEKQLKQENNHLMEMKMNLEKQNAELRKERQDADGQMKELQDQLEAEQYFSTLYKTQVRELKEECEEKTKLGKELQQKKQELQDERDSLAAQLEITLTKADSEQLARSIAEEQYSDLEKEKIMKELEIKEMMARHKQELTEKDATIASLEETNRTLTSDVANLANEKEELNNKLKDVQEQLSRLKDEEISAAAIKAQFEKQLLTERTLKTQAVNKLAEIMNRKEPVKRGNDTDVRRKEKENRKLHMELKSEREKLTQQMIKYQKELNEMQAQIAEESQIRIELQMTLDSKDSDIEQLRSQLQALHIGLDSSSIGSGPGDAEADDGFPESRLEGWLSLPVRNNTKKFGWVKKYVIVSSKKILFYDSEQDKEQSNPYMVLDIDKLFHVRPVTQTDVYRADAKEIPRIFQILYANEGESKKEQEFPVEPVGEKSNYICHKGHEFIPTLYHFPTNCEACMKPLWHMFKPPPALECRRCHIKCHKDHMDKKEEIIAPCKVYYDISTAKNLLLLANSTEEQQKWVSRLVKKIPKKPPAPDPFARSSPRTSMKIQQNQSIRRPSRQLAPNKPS

SMILES: CC(=O)Oc1cccc(-c2nc(Nc3ccc4[nH]ncc4c3)c3ccccc3n2)c1 [Example 272]
pIC50 (ROCK 2): 6.24
pIC50 (ROCK 1): < 5.00

SMILES: CC(C)NC(=O)COc1cccc(-c2nc(Nc3ccc4[nH]ncc4c3)c3ccccc3n2)c1 [SLx-2119]
weight gain less than in mice that did not receive the supplement ([1]; ApoE (−/−) mice): 50%
weight gain less than in mice that did not receive the supplement ([1]; C57BL/6 mice): 33%
reduction of body weight gain ([2]; FIG. 27): about 6%
caloric intake ([2]; FIG. 28): little or no change
weight gain ([3]; high fat diet (42% of calories from fat) supplemented with compound, versus control diet mice, FIG. 11): not distinguishable from the control mice
average caloric intake of untreated high fat diet mice relative to control and treated groups ([3]; high fat diet, FIG. 12): only slightly higher
glucose levels following feeding [4]: increased relative to mice maintained on the control diet, but not as high as in mice that did not receive SLx-2119
recovery of glucose levels [4]: quickly recovered to a normal level
fasting blood glucose levels ([5]; high fat diet, FIG. 25): reduced to normal levels
fasting insulin levels ([5]; high fat diet, FIG. 25): significantly reduced
hyperinsulinemia ([5]; low fat diet, FIG. 26): Attenuation
weight gain ([6]; normal C57BL/6 mice, low fat diet, FIG. 19): no distinguishable effect
weight gain ([6]; ob−/ob− mice, high fat diet, FIG. 22): reduced by half
weight gain ([6]; ob−/ob− mice, low fat diet, versus ob−/ob− mice without compound, FIG. 19): gained only half as much weight
fasting blood glucose levels ([7]; C57BL/6 and ApoE (−/−) mice, FIG. 18 bottom): reductions
fasting insulin levels ([7]; normal C57BL/6 mice, FIG. 18 top): reduction

SMILES: NC(=O)COc1cccc(-c2nc(Nc3ccc4[nH]ncc4c3)c3ccccc3n2)c1 [Example 84, 2-(3-(4-(1H-indazol-5-ylamino)quinazolin-2-yl)phenoxy)acetamide]
pIC50 (ROCK 2): 6.28
pIC50 (ROCK 1): 5.59

SMILES: C[C@@H](N)[C@H]1CC[C@H](C(=O)Nc2ccncc2)CC1 [Example Y-27632]
inhibition of ROCK2 compared with ROCK1 (ROCK2): to the same extent

SMILES: COCCNC(=O)COc1cccc(-c2nc(Nc3ccc4[nH]ncc4c3)c3ccccc3n2)c1 [Example 54, 2-(3-(4-(1H-indazol-5-ylamino)quinazolin-2-yl)phenoxy)-N-(2-methoxyethyl)acetamide]
pIC50 (ROCK 2): 6.82
pIC50 (ROCK 1): < 5.00

SMILES: O=C(COc1cccc(-c2nc(Nc3ccc4[nH]ncc4c3)c3ccccc3n2)c1)Nc1cccnc1 [Example 55, 2-(3-(4-(1H-indazol-5-ylamino)quinazolin-2-yl)phenoxy)-N-(pyridin-3-yl)acetamide]
pIC50 (ROCK 2): 7.05
pIC50 (ROCK 1): < 5.00

The next lines start with the values.

pIC50 (ROCK 2): 7.40
pIC50 (ROCK 1): < 6.00
SMILES: CCCC(=O)Nc1cccc(-c2nc(Nc3ccc4[nH]ncc4c3)c3cc(OCCN(C)C)ccc3n2)c1 [Example 141, N-(3-(4-(1H-indazol-5-ylamino)-6-(2-(dimethylamino)ethoxy)quinazolin-2-yl)phenyl)butyramide]

pIC50 (ROCK 2): 7.30
pIC50 (ROCK 1): < 5.52
SMILES: CCCC(=O)Nc1cccc(-c2nc(Nc3ccc4[nH]ncc4c3)c3cc(OCCCN4CCOCC4)c(OC)cc3n2)c1 [Example 160, N-(3-(4-(1H-indazol-5-ylamino)-7-methoxy-6-(3-morpholinopropoxy)quinazolin-2-yl)phenyl)butyramide]

pIC50 (ROCK 2): 7.22
pIC50 (ROCK 1): < 5.52
SMILES: COc1cc2nc(-c3cccc(NC(=O)CN4CCOCC4)c3)nc(Nc3ccc4[nH]ncc4c3)c2cc1OCCN1CCCC1 [Example 167, N-(3-(4-(1H-Indazol-5-ylamino)-7-methoxy-6-(2-(pyrrolidin-1-yl)ethoxy)quinazolin-2-yl)phenyl)-2-morpholinoacetamide]

pIC50 (ROCK 2): 7.05
pIC50 (ROCK 1): < 5.52
SMILES: CCCC(=O)Nc1cccc(-c2nc(Nc3ccc4[nH]ncc4c3)c3ccc(OCCOC)cc3n2)c1 [Example 263]
